Consider 13 compounds from patent publication US10501482B2, “Compounds for treating spinal muscular atrophy” (Hoffmann-La Roche Inc., priority 2013, dated 2019).

The structures appear in SMILES notation. Counter-ions that a name gives are not always drawn.

In experiment [1] the test system is SMN protein. In words: SMN protein assay (HTRF) in cultured SMA patient fibroblast cells. The class given is cell-based. To be noted: SMA Type 1 human fibroblasts GM03813, 48 hours; for EC1.5x SMN protein (EC1.5x concentration for SMN protein expression): 7-point concentration curve, concentration giving 1.5 times SMN protein vs vehicle; for max. fold increase (maximum fold increase of SMN protein): 7-point concentration data, fold vs vehicle control. As to the method: The SMN HTRF (homogeneous time resolved fluorescence) assay is used to quantify the level of SMN protein in SMA patient fibroblast cells treated with test compounds.
Cells are thawed and cultured in DMEM-10% FBS for 72 hours. Cells are trypsinized, counted and re-suspended to a concentration of 25,000 cells/mL in DMEM-10% FBS. The cell suspensions are plated at 5,000 cells per well in a 96 well microtiter plate and incubated for 3 to 5 hours. […] 1 μL of test compound solution is transferred to cell-containing wells and cells are incubated for 48 hours in a cell culture incubator (37° C., 5% CO2, 100% relative humidity). Triplicate samples are set up for each test compound concentration. After 48 hours, the supernatant is removed from the wells and 25 μL of the RIPA lysis buffer, containing protease inhibitors, is added to the wells and incubated with shaking at room temperature for 1 hour. 25 μL of the diluent is added and then 35 μL of the resulting lysate is transferred to a 384-well plate, where each well contains 5 μL of the antibody solution (1:100 dilution of anti-SMN d2 and anti-SMN kryptate in SMN reconstitution buffer). The plate is centrifuged for 1 minute to bring the solution to the bottom of the wells, then incubated overnight at room temperature. Fluorescence for each well of the plate at 665 nm and 620 nm is measured on an EnVision multilabel plate reader (Perkin-Elmer).
The normalized fluorescence signal is calculated for each sample, Blank and vehicle control well by dividing the signal at 665 nm by the signal at 620 nm. Normalizing the signal accounts for possible fluorescence quenching due to the matrix effect of the lysate. The ΔF value (a measurement of SMN protein abundance as a percent value) for each sample well is calculated by subtracting the normalized average fluorescence for the Blank control wells from the normalized fluorescence for each sample well, then dividing this difference by the normalized average fluorescence for the Blank control wells and multiplying the resulting value by 100. The ΔF value for each sample well represents the SMN protein abundance from test compound-treated samples. The ΔF value for each sample well is divided by the ΔF value for the vehicle control wells to calculate the fold increase in SMN protein abundance relative to the vehicle control. Table 3 provides EC1.5x concentrations for SMN protein expression that was obtained from the 7-point concentration data generated according to the above procedure for particular compounds of the present invention.
Table 4 provides the maximum fold increase of SMN protein that was obtained from the 7-point concentration data generated according to the above procedure for particular compounds of the present invention
For orientation: Time-resolved FRET reads energy transfer from a long-lived donor to a nearby acceptor.

Experiment [2] has as its system full length SMN2 minigene mRNA (FL SMN2mini) in HEK293H cells stably transfected with the SMN2-A minigene construct. In words: SMN2 minigene mRNA splicing RT-qPCR assay in cultured cells. The class given is cell-based. To be noted: Homo sapiens, HEK293-H, 24 hours, 7-point concentration curve, concentration giving 1.5-fold FL SMN2mini mRNA vs vehicle, read-out: EC1.5x minigene (EC1.5x concentration for production of full length SMN2 minigene mRNA). As to the method:
The reverse transcription-quantitative PCR-based (RT-qPCR) assay is used to quantify the level of the full length SMN2 minigene (referred to herein by the term “FL SMN2mini”) mRNA containing SMN2 exon 7 in a HEK293H cell line stably transfected with said minigene and treated with a test compound.
The SMN2-A minigene construct was prepared as described in International Patent Application WO2009/151546A1 page 145 paragraph [00400] to page 147 paragraph [00412](incl. FIG. 1 and FIG. 3 therein).
HEK293H cells stably transfected with the SMN2-A minigene construct (10,000 cells/well) are seeded in 200 μL of cell culture medium (DMEM plus 10% FBS, with 200 μg/mL hygromycin) in 96-well flat-bottom plates and the plate is immediately swirled to ensure proper dispersal of cells and the formation of an even monolayer of cells. Cells are allowed to attach for 6 hours. […] A solution of test compound (1 μL, 200× in DMSO) is added to each cell-containing well and the plate is incubated for 24 hours in a cell culture incubator (37° C., 5% CO2, 100% relative humidity). 2 replicates are prepared for each test compound concentration. The cells are then lysed in the Cells-To-Ct lysis buffer and the lysate is stored at −80° C.
Full length SMN2-A minigene and GAPDH mRNA are quantified using the primers and probes referenced in Table 1. Primer SMN Forward A (SEQ ID NO.1) hybridizes to a nucleotide sequence in exon 7 (nucleotide 22 to nucleotide 40), primer SMN Reverse A (SEQ ID NO.2) hybridizes to a nucleotide sequence in the coding sequence of Firefly luciferase, SMN Probe A (SEQ ID NO.3) hybridizes to a nucleotide sequence in exon 7 (nucleotide 50 to nucleotide 54) and exon 8 (nucleotide 1 to nucleotide 21). The combination of these three oligonucleotides detects only SMN1 or SMN2 minigenes (RT-qPCR) and will not detect endogenous SMN1 or SMN2 genes.
The SMN forward and reverse primers are used at final concentrations of 0.4 μM. The SMN probe is used at a final concentration of 0.15 μM. The GAPDH primers are used at final concentrations of 0.2 μM and the probe at 0.15 μM.
The SMN2-minigene GAPDH mix (15 μL total volume) is prepared by combining 7.5 μL of 2×RT-PCR buffer, 0.4 μL of 25×RT-PCR enzyme mix, 0.75 μL of 20×GAPDH primer-probe mix, 4.0075 μL of water, 2 μL of 10-fold diluted cell lysate, 0.06 μL of 100 μM SMN forward primer, 0.06 μL of 100 μM SMN reverse primer, and 0.225 μL of 100 μM SMN probe.
PCR is carried out at the following temperatures for the indicated time: Step 1: 48° C. (15 min); Step 2: 95° C. (10 min); Step 3: 95° C. (15 sec); Step 4: 60° C. (1 min); then repeat Steps 3 and 4 for a total of 40 cycles.
Each reaction mixture contains both SMN2-A minigene and GAPDH primers/probe sets (multiplex design), allowing simultaneous measurement of the levels of two transcripts.
The increase in the abundance of the FL SMN2mini mRNA relative to that in cells treated with vehicle control is determined from real-time PCR data using a modified ΔΔCt method (as described in Livak and Schmittgen, Methods, 2001, 25:402-8). The amplification efficiency E is calculated from the slope of the amplification curve for FL SMN2mini and GAPDH individually. The abundance of FL SMN2mini and GAPDH mRNA are then calculated as (1+E)^−Ct, where Ct is the threshold value for each amplicon. The abundance of FL SMN2mini mRNA is normalized to GAPDH mRNA abundance. The normalized FL SMN2mini mRNA abundance from test compound-treated samples is then divided by normalized FL SMN2mini mRNA abundance from vehicle-treated cells to determine the level of FL SMN2mini mRNA relative to vehicle control.
Table 2 provides EC1.5x concentrations for production of full length SMN2 minigene mRNA that was obtained from the 7-point concentration data generated according to the above procedure for particular compounds of the present invention.

For the compound `Cc1cn2cc(NC(=O)c3ccc(C4=CCNCC4)cn3)ccc2n1` [Example 63, N-(2-methyl-imidazo[1,2-a]-pyridin-6-yl)-5-(1,2,3,6-tetra-hydropyridin-4-yl)picolinamide dihydrochloride], in experiment [1], the “EC1.5x SMN protein (EC1.5x concentration for SMN protein expression)” value (from here on “EC1.5x SMN protein”) was determined as 1.0431 µM and the “max. fold increase (maximum fold increase of SMN protein)” value (“max. fold increase” for short) came to 1.6807. Also, the EC (1.5-fold) in experiment [2] worked out at 0.16 µM.

`COc1cc(N2CCNC(C)C2)ncc1C(=O)Nc1cc(F)c2nc(C)cn2c1` (racemic) [Example 76, rac-N-(8-fluoro-2-methylimidazo[1,2-a]pyridin-6-yl)-4-methoxy-6-(3-methylpiperazin-1-yl)nicotinamide]: in experiment [1], the “EC1.5x SMN protein” value was 0.1629 µM and the “max. fold increase” value is recorded as 1.7274. Further, the EC (1.5-fold) in experiment [2] turned out to be 0.0187 µM.

Consider `Cc1cn2cc(NC(=O)c3ccc(N4CCNCC4)c(C)c3)cc(F)c2n1` [Example 66, N-(8-fluoro-2-methylimidazo[1,2-a]pyridin-6-yl)-3-methyl-4-(piperazin-1-yl)benzamide], for which, in experiment [1], the “EC1.5x SMN protein” value turned out to be 0.6108 µM and the “max. fold increase” value turned out to be 1.5438. Further, the EC (1.5-fold) in experiment [2] came to 0.518 µM.

For `Cc1nc2c(F)cc(NC(=O)c3ccc(N4CCNCC4)cc3)cc2o1` [Example 28, N-(4-fluoro-2-methylbenzo[d]-oxazol-6-yl)-4-(piperazin-1-yl)benzamide], in experiment [1], the “EC1.5x SMN protein” value turned out to be 0.2868 µM and the “max. fold increase” value was determined as 1.7291. Besides, in experiment [2], the EC (1.5-fold) amounted to 0.252 µM.

Regarding `Cc1cn2cc(NC(=O)c3cnc(N4CCNCC4)cc3OCC(F)(F)F)cc(F)c2n1` [Example 71, N-(8-fluoro-2-methylimidazo[1,2-a]pyridin-6-yl)-6-(piperazin-1-yl)-4-(2,2,2-trifluoro-ethoxy)nicotinamide], in experiment [1], the “EC1.5x SMN protein” value came to 0.4077 µM and the “max. fold increase” value is reported as 1.4815. Moreover, the EC (1.5-fold) in experiment [2] stood at 0.077 µM.

Regarding `COc1nc(N2CCNC(C)(C)C2)ccc1C(=O)Nc1cc(F)c2nc(C)cn2c1` [Example 75, 6-(3,3-dimethyl-piperazin-1-yl)-N-(8-fluoro-2-methyl-imidazo[1,2-a]-pyridin-6-yl)-2-methoxynicotinamide], in experiment [1], the “EC1.5x SMN protein” value was determined as 0.3061 µM and the “max. fold increase” value turned out to be 1.7035. The EC (1.5-fold) in experiment [2] came out at 0.0654 µM.

Consider `Cc1cn2cc(NC(=O)c3ccc(N4CCNCC4)nc3)cc(F)c2n1` [Example 41, N-(8-tluoro-2-methylimidazo-[1,2-a]pyridin-6-yl)-6-(piperazin-1-yl)nicotinamide dihydrochloride], for which, in experiment [1], the “EC1.5x SMN protein” value worked out at 0.0508 µM and the “max. fold increase” value was determined as 1.7973.

On to `Cc1cn2cc(NC(=O)c3ccc(N4CCNCC4)cn3)nc2c(C)n1` [Example 11, N-(6,8-dimethyl-imidazo[1,2-a]-pyrazin-2-yl)-5-(piperazin-1-yl)picolinamide], for which, in experiment [1], the “EC1.5x SMN protein” value was found to be 0.321 µM and the “max. fold increase” value is given as 1.7143. In experiment [2], the EC (1.5-fold) is 0.297 µM.

As to `Cc1cn2cc(NC(=O)c3ccc(N4CCNCC4)cc3)cc(F)c2n1.Cl` [Example 36, N-(8-fluoro-2-methylimidazo[1,2-a]pyridin-6-yl)-4-(piperazin-1-yl)benzamide hydrochloride], in experiment [1], the “EC1.5x SMN protein” value was 0.1094 µM and the “max. fold increase” value is on record as 1.7018. Besides, the EC (1.5-fold) in experiment [2] stood at 0.0278 µM.

For the compound `Cc1nc2c(F)cc(NC(=O)c3ccc(N4CCNCC4)cc3F)cc2o1` [Example 58, 2-fluoro-N-(4-fluoro-2-methyl-benzo[d]oxazol-6-yl)-4-(piperazin-1-yl)benzamide], in experiment [1], the “EC1.5x SMN protein” value amounted to 0.1159 µM and the “max. fold increase” value worked out at 1.7744. In experiment [2], the EC (1.5-fold) worked out at 0.0398 µM.

As to `Cc1nc2c(F)cc(NC(=O)c3ccc(N4CCN(C)CC4)nc3)cc2o1` [Example 24, N-(4-fluoro-2-methylbenzo[d]-oxazol-6-yl)-6-(4-methylpiperazin-1-yl)nicotinamide], in experiment [1], the “EC1.5x SMN protein” value was determined as 1.2616 µM and the “max. fold increase” value was 1.756. Also, in experiment [2], the EC (1.5-fold) amounted to 0.649 µM.

On to `CCOc1cc(N2CCNCC2)ncc1C(=O)Nc1cc(F)c2nc(C)cn2c1` [Example 70, 4-ethoxy-N-(8-fluoro-2-methylimidazo[1,2-a]pyridin-6-yl)-6-(piperazin-1-yl)nicotinamide], for which, in experiment [1], the “EC1.5x SMN protein” value was determined as 0.0187 µM and the “max. fold increase” value amounted to 1.933.

Regarding `Cc1nc2c(F)cc(NC(=O)c3ccc(N4CCN5CCC[C@H]5C4)cc3F)cc2o1` [Example 33, (S)-2-Fluoro-N-(4-fluoro-2-methyl-benzooxazol-6-yl)-4-(S)-hexahydro-pyrrolo[1,2-a]-pyrazin-2-yl-benzamide], in experiment [1], the “EC1.5x SMN protein” value was determined as 0.5703 µM and the “max. fold increase” value is listed as 1.7541.
